Experimental data published in patent US20100222330A1, “New Compounds” (BIOVITRUM AB, priority 2001, published 2010).

Tests used:
ob/ob mouse = experiment: In vivo assay of reduction of food intake (15 h, osmotic minipump infusion); conditions: for % Inhibition of Food Intake in ob/ob mice at 50 mg/Kg/day, 15 h: continuous subcutaneous infusion
Protocol: Obese (ob/ob) mouse is selected as the primary animal model for screening as this mutant mouse consumes high amounts of food resulting in a high signal to noise ratio. To further substantiate and compare efficacy data, the effect of the compounds on food consumption is also studied in wild type (C57BL/6J) mice. The amount of food consumed during 15 hours of infusion of compounds is recorded.
Male mice (obese C57BL/6JBom-Lee and lean wild-type C57B1/6JBom; Bomholtsgaard, Denmark) 8-9 weeks with an average body weight of 50 g (obese) and 25 g (lean) are used in all the studies. The animals are housed singly in cages at 23±1° C., 40-60% humidity and have free access to water and standard laboratory chow. The 12/12-h light/dark cycle is set to lights off at 5 p.m. The animals are conditioned for at least one week before start of study.
The test compounds are dissolved in solvents suitable for each specific compound such as cyclodextrin, cyclodextrin/methane sulfonic acid, polyethylene glycol/methane sulfonic acid, saline. Fresh solutions are made for each study. […] The purity of the test compounds is of analytical grade.
The animals are weighed at the start of the study and randomized based on body weight. Alzet osmotic minipumps (Model 2001 D; infusion rate 8 μl/h) are used and loaded essentially as recommended by the Alzet technical information manual (Alza Scientific Products, 1997; Teeuwes and Yam, 1976). Continuous subcutaneous infusion with 24 hours duration is used. The minipumps are either filled with different concentrations of test compounds dissolved in vehicle or with only vehicle solution and maintained in vehicle pre-warmed to 37° C. (approx. 1 h). The minipumps are implanted subcutaneously in the neck/back region under short acting anesthesia (metofane/enflurane). This surgical procedure lasts approximately 5 min. It takes about 3 h to reach steady state delivery of the compound.
(§1) The weight of the food pellets are measured at 5 p.m. and at 8 p.m. for two days before (baseline) and one day after the implantation of the osmotic minipumps. The weigh-in is performed with a computer assisted Mettler Toledo PR 5002 balance. Occasional spillage is corrected for. At the end of the study the animals are killed by neck dislocation and trunk blood sampled for later analysis of plasma drug concentrations.
Food consumption for 15 hours is measured for the three consecutive days and the percentage of basal level values is derived for each animal from the day before and after treatment. The values are expressed as mean±SD and ±SEM from eight animals per dose group. Statistical evaluation is performed by Kruskal-Wallis one-way ANOVA using the percent basal values. If statistical significance is reached at the level of p<0.05, Mann-Whitney U-test for statistical comparison between control and treatment groups is performed.

[1] = Plasma drug concentration at steady state in the food intake study (LC/MS); type: in vivo; design: unit not given here; conditions: ob/ob mouse, trunk blood at end of study
Protocol: as §1
The plasma sample proteins are precipitated with methanol, centrifuged and the supernatant is transferred to HPLC vials and injected into the liquid chromatography/mass spectrometric system. The mass spectrometer is set for electrospray positive ion mode and Multiple Reaction Monitoring (MRM with the transition m/z 316 ? 221). A linear regression analysis of the standards forced through the origin is used to calculate the concentrations of the unknown samples.

Compound	melting point	Free plasma concentration of the compounds at steady state (Css, u) [1]	% Inhibition of Food Intake in ob/ob mice at 50 mg/Kg/day, 15 h (ob/ob mouse)	% Inhibition of Food Intake in ob/ob mice, 15 h (ob/ob mouse; dose of 100 mg/kg/d (footnote b))	% Inhibition of Food Intake in ob/ob mice, 15 h (ob/ob mouse; dose of 14.8 mg/kg/d (footnote a))
Cc1ccc(S(=O)(=O)Nc2ccc(N3CCNCC3)c3ccccc23)cc1.Cl	181 °C (dec.)				
Cl.O=S(=O)(Nc1ccc(N2CCNCC2)c2ccccc12)c1ccc2ccccc2c1 [Example 13, 2-N-[4-(1-piperazinyl)-1-naphthyl]naphthalenesulfonamide, hydrochloride]		0.035	24.1%		
Cl.O=S(=O)(Nc1ccc(N2CCNCC2)c2ccccc12)c1ccc(Br)cc1 [Example 19, 4-Bromo-N-(4-piperazin-1-yl-naphthalen-1-yl)-benzenesulfonamide, hydrochloride]		0.150	69.6%		
Cl.O=S(=O)(Nc1ccc(N2CCNCC2)c2ccccc12)c1ccc(Cl)cc1 [Example 30, 4-Chloro-N-(4-piperazin-1-yl-naphthalen-1-yl)-benzenesulfonamide, hydrochloride]		0.275	60.1%		
Cc1cc(Cl)cc(Cl)c1S(=O)(=O)Nc1ccc(N2CCNCC2)c2ccccc12.Cl [Example 53, 2,4-Dichloro-6-methyl-N-(4-piperazin-1-yl-naphthalen-1-yl)-benzenesulfonamide, hydrochloride]					25.7^a %

More lines, main results first:

melting point	Free plasma concentration of the compounds at steady state (Css, u) [1]	Compound	% Inhibition of Food Intake in ob/ob mice at 50 mg/Kg/day, 15 h (ob/ob mouse)	% Inhibition of Food Intake in ob/ob mice, 15 h (ob/ob mouse; dose of 100 mg/kg/d (footnote b))	% Inhibition of Food Intake in ob/ob mice, 15 h (ob/ob mouse; dose of 14.8 mg/kg/d (footnote a))
	0.23	Cc1ccc(S(=O)(=O)N(C)c2ccc(N3CCNCC3)c3ccccc23)cc1.Cl [Example 14, N,4-Dimethyl-N-[4-(1-piperazinyl)-1-naphthyl]benzenesulfonamide, hydrochloride]		41^b %	
	0.0076	Cl.O=S(=O)(Nc1ccc(N2CCNCC2)c2ccccc12)c1cccc(C(F)(F)F)c1 [Example 24, 3-Trifluoromethyl-N-[4-(1-piperazinyl)-1-naphthyl]benzenesulfonamide, hydrochloride]	46.2%		
	0.008	Cl.O=S(=O)(Nc1ccc(N2CCNCC2)c2ccccc12)c1cccc2ccccc12 [Example 27, Naphthalene-1-sulfonic acid (4-piperazin-1-yl-naphthalen-1-yl)-amide, hydrochloride]	68.9%		
	0.33	COc1ccc(S(=O)(=O)Nc2ccc(N3CCNCC3)c3ccccc23)cc1.Cl [Example 29, 4-Methoxy-N-(4-piperazin-1-yl-naphthalen-1-yl)-benzenesulfonamide, hydrochloride]	71%		
	0.078	Cc1ccc(F)cc1S(=O)(=O)Nc1ccc(N2CCNCC2)c2ccccc12.Cl [Example 34, 5-Fluoro-2-methyl-N-(4-piperazin-1-yl-naphthalen-1-yl)-benzenesulfonamide, hydrochloride]	51.4%		
	0.008	Cc1c(Cl)cccc1S(=O)(=O)Nc1ccc(N2CCNCC2)c2ccccc12.Cl [Example 48, 3-Chloro-2-methyl-N-(4-piperazin-1-yl-naphthalen-1-yl)-benzenesulfonamide, hydrochloride]	23.8%		
